Measured values published in patent US9273095B2, “Antibiotic peptide and preparation method therefor and application therefor” (priority 2011, dated 2016).
Marks after values point to notes of the source that are not given here. Non-standard residues stand in square brackets, D forms with d. Residues, ends and D or L forms follow the SMILES beside them.

Assays:
Pseudomonas aeruginosa = assay: Therapeutic test of injection on mice with systemic infection, survival time; assay type: in vivo, ICR mice; settings: for Mean survival Time: observed fourteen days; for Mean survival Time / Mortality of mice in different days after infection: n = 10
Description: (§1) There are 30 male and 30 female ICR mice with the weight ranging from 18 g to 22 g. According to their weight, they are randomly divided into 6 groups of 10 mice: blank control group, negative control group, Levofloxacin positive control group, PL-13 (SEQ ID NO: 1) high dose group, PL-13 (SEQ ID NO: 1) middle dose group and PL-13 (SEQ ID NO: 1) low dose group. Each group is raised in the same plastic case. With trinitrophenal marking method, all the mice are raised with ordinary animal feeds in the ordinary animal houses and they can drink water freely. Alternating of light and dark is conducted every 12 hours.
(§2) 2. Infected Strains: Pseudomonas aeruginosa and Staphylococcus aureus
(§3) PL-18 (SEQ ID NO: 1) freeze-dried powder injections (supplied by Jiangsu ProteLight Pharmaceutical & Biotechnology Co., LTD.), Levofloxacin Hydrochloride and Sodium Chloride Injection (supplied by Yangtze River Pharmaceutical Group) and 0.9% Sodium Chloride Injection (supplied by Chifeng Rongjitang Pharmaceutical CO., Ltd.)
(§4) (1) The preparation of bacterial suspension is the same as above.
(§5) (2) The Pseudomonas aeruginosa suspension cultured overnight is diluted to 1×10^9CFU/ml. The Staphylococcus aureus suspension cultured overnight is diluted to 1×10^8CFU/ml. They are all applied in reserve.
(§6) (3) Except the blank control group, every other mouse is injected with 0.2 ml Pseudomonas aeruginosa suspension with the concentration of 1×10^9CFU/ml or 0.2 ml Staphylococcus aureus suspension with the concentration of 1×10^8CFU/ml intraperitoneally to make model.
(§7) (4) Administration: Inject the drugs according to weight right after the model is ready. All the groups excepting the blank and the negative infected group are injected with different dosage of different injections through caudal vena twice a day successively for three days, and they are observed for fourteen days.
(§8) (5) Observe death of the animals and record their survival time.

Staphylococcus aureus = assay: as above; assay type: in vivo, ICR mice; settings: for Mean survival Time: observed fourteen days; for Mean survival Time / Mortality of mice in different days after infection: n = 10
Description: as §1, §2, §3, §4, §5, §6, §7, §8

[1] = 30 mg/kg twice a day for three days
[2] = day 1, 30 mg/kg twice a day for three days
[3] = day 2, 30 mg/kg twice a day for three days
[4] = day 3, 30 mg/kg twice a day for three days
[5] = day 4, 30 mg/kg twice a day for three days
[6] = day 5, 30 mg/kg twice a day for three days
[7] = 0.2 mg/kg (low) caudal vena twice a day for three days
[8] = 1 mg/kg (middle) caudal vena twice a day for three days
[9] = 5 mg/kg (high) caudal vena twice a day for three days
[10] = day 1, 0.2 mg/kg (low) caudal vena twice a day for three days
[11] = day 1, 1 mg/kg (middle) caudal vena twice a day for three days
[12] = day 1, 5 mg/kg (high) caudal vena twice a day for three days
[13] = day 2, 0.2 mg/kg (low) caudal vena twice a day for three days
[14] = day 2, 1 mg/kg (middle) caudal vena twice a day for three days
[15] = day 2, 5 mg/kg (high) caudal vena twice a day for three days
[16] = day 3, 0.2 mg/kg (low) caudal vena twice a day for three days
[17] = day 3, 1 mg/kg (middle) caudal vena twice a day for three days
[18] = day 3, 5 mg/kg (high) caudal vena twice a day for three days
[19] = day 4, 0.2 mg/kg (low) caudal vena twice a day for three days
[20] = day 4, 1 mg/kg (middle) caudal vena twice a day for three days
[21] = day 4, 5 mg/kg (high) caudal vena twice a day for three days
[22] = day 5, 0.2 mg/kg (low) caudal vena twice a day for three days
[23] = day 5, 1 mg/kg (middle) caudal vena twice a day for three days
[24] = day 5, 5 mg/kg (high) caudal vena twice a day for three days

**Q.** How did the “Mean survival Time” value (Pseudomonas aeruginosa; [1]) turn out when `C[C@H]1COc2c(N3CCN(C)CC3)c(F)cc3c(=O)c(C(=O)O)cn1c23` [Levofloxacin, levofloxacin, reference compound] was run?
**A.** 6.4** day

**Q.** What about the “Mortality of mice in different days after infection” value (from here on “Mortality of mice in different days”) (Pseudomonas aeruginosa; [2]) of the same compound?
**A.** 4

**Q.** And the “Mortality of mice in different days” value (Pseudomonas aeruginosa; [3])?
**A.** 2

**Q.** And the “Mortality of mice in different days” value (Pseudomonas aeruginosa; [4])?
**A.** 0

**Q.** What about the “Mortality of mice in different days” value (Pseudomonas aeruginosa; [5]) of the same compound?
**A.** 0

**Q.** And the “Mortality of mice in different days” value (Pseudomonas aeruginosa; [6])?
**A.** 0

**Q.** And the “Mean survival Time” value (Staphylococcus aureus; [1])?
**A.** 5.4** day

**Q.** And the “Mortality of mice in different days” value (Staphylococcus aureus; [2])?
**A.** 5

**Q.** What about the “Mortality of mice in different days” value (Staphylococcus aureus; [3]) of the same compound?
**A.** 2

**Q.** What about the “Mortality of mice in different days” value (Staphylococcus aureus; [4]) of the same compound?
**A.** 0

**Q.** What about the “Mortality of mice in different days” value (Staphylococcus aureus; [5]) of the same compound?
**A.** 0

**Q.** And the “Mortality of mice in different days” value (Staphylococcus aureus; [6])?
**A.** 0

**Q.** With `CC(=O)N[C@H](Cc1ccccc1)C(=O)N[C@H](CCCCN)C(=O)N[C@H](CCCCN)C(=O)N[C@H](CC(C)C)C(=O)N[C@H](CCCCN)C(=O)N[C@H](CCCCN)C(=O)N[C@H](CC(C)C)C(=O)N[C@H](Cc1ccccc1)C(=O)N[C@H](CO)C(=O)N[C@H](CCCCN)C(=O)N[C@H](CC(C)C)C(=O)N[C@H](Cc1c[nH]c2ccccc12)C(=O)N[C@H](CC(N)=O)C(=O)N[C@H](Cc1c[nH]c2ccccc12)C(=O)N[C@H](CCCCN)C(N)=O` [PL-18] (Ac-[dF][dK][dK][dL][dK][dK][dL][dF][dS][dK][dL][dW][dN][dW][dK]-NH2) as the compound, how does the “Mean survival Time” value (Pseudomonas aeruginosa; [7]) read?
**A.** 6.7** day

**Q.** And the “Mean survival Time” value (Pseudomonas aeruginosa; [8])?
**A.** 7.7** day

**Q.** What about the “Mean survival Time” value (Pseudomonas aeruginosa; [9]) of the same compound?
**A.** 8.6** day

**Q.** And the “Mortality of mice in different days” value (Pseudomonas aeruginosa; [10])?
**A.** 0

**Q.** What about the “Mortality of mice in different days” value (Pseudomonas aeruginosa; [11]) of the same compound?
**A.** 0

**Q.** What about the “Mortality of mice in different days” value (Pseudomonas aeruginosa; [12]) of the same compound?
**A.** 0

**Q.** And the “Mortality of mice in different days” value (Pseudomonas aeruginosa; [13])?
**A.** 2

**Q.** And the “Mortality of mice in different days” value (Pseudomonas aeruginosa; [14])?
**A.** 1

**Q.** What about the “Mortality of mice in different days” value (Pseudomonas aeruginosa; [15]) of the same compound?
**A.** 1

**Q.** And the “Mortality of mice in different days” value (Pseudomonas aeruginosa; [16])?
**A.** 1

**Q.** And the “Mortality of mice in different days” value (Pseudomonas aeruginosa; [17])?
**A.** 2

**Q.** And the “Mortality of mice in different days” value (Pseudomonas aeruginosa; [18])?
**A.** 2

**Q.** What about the “Mortality of mice in different days” value (Pseudomonas aeruginosa; [19]) of the same compound?
**A.** 2

**Q.** What about the “Mortality of mice in different days” value (Pseudomonas aeruginosa; [20]) of the same compound?
**A.** 2

**Q.** What about the “Mortality of mice in different days” value (Pseudomonas aeruginosa; [21]) of the same compound?
**A.** 2

**Q.** And the “Mortality of mice in different days” value (Pseudomonas aeruginosa; [22])?
**A.** 2

**Q.** What about the “Mortality of mice in different days” value (Pseudomonas aeruginosa; [23]) of the same compound?
**A.** 1

**Q.** What about the “Mortality of mice in different days” value (Pseudomonas aeruginosa; [24]) of the same compound?
**A.** 0

**Q.** And the “anti-infection effect (in words)” value (Pseudomonas aeruginosa; high, middle and low dose injection, systemic infection of Pseudomonas aeruginosa)?
**A.** very good

**Q.** What about the “Mean survival Time” value (Staphylococcus aureus; [7]) of the same compound?
**A.** 6.3** day

**Q.** What about the “Mean survival Time” value (Staphylococcus aureus; [8]) of the same compound?
**A.** 7.3** day

**Q.** What about the “Mean survival Time” value (Staphylococcus aureus; [9]) of the same compound?
**A.** 9.9** day

**Q.** And the “Mortality of mice in different days” value (Staphylococcus aureus; [10])?
**A.** 1

**Q.** And the “Mortality of mice in different days” value (Staphylococcus aureus; [11])?
**A.** 1

**Q.** What about the “Mortality of mice in different days” value (Staphylococcus aureus; [12]) of the same compound?
**A.** 0

**Q.** And the “Mortality of mice in different days” value (Staphylococcus aureus; [13])?
**A.** 2

**Q.** And the “Mortality of mice in different days” value (Staphylococcus aureus; [14])?
**A.** 2

**Q.** What about the “Mortality of mice in different days” value (Staphylococcus aureus; [15]) of the same compound?
**A.** 1

**Q.** What about the “Mortality of mice in different days” value (Staphylococcus aureus; [16]) of the same compound?
**A.** 1

**Q.** And the “Mortality of mice in different days” value (Staphylococcus aureus; [17])?
**A.** 1

**Q.** What about the “Mortality of mice in different days” value (Staphylococcus aureus; [18]) of the same compound?
**A.** 1

**Q.** And the “Mortality of mice in different days” value (Staphylococcus aureus; [19])?
**A.** 2

**Q.** What about the “Mortality of mice in different days” value (Staphylococcus aureus; [20]) of the same compound?
**A.** 1

**Q.** What about the “Mortality of mice in different days” value (Staphylococcus aureus; [21]) of the same compound?
**A.** 1

**Q.** What about the “Mortality of mice in different days” value (Staphylococcus aureus; [22]) of the same compound?
**A.** 1

**Q.** What about the “Mortality of mice in different days” value (Staphylococcus aureus; [23]) of the same compound?
**A.** 1

**Q.** And the “Mortality of mice in different days” value (Staphylococcus aureus; [24])?
**A.** 2

**Q.** And the “anti-infection effect (in words)” value (Staphylococcus aureus; high, middle and low dose injection, systemic infection of Staphylococcus aureus)?
**A.** very good
